Measurements: US5922891A, “2-substituted 1,8-dihydroxy-9(10H)-anthracenone pharmaceuticals” (priority 1997, dated 1999)

Experiments:
HaCaT cells = experiment: Antiproliferative activity against HaCaT cells (human keratinocyte cell line); assay type: cell-based; details: 48 h, read-out: AA IC50 (antiproliferative activity)
Experimental: HaCaT cells were grown in Dulbecco's modified Eagle's medium (DMEM, No. 041-11954A, Gibco) supplemented with 10% fetal calf serum, penicillin (100 U/mL), and streptomycin (100 μg/mL) in a humidified incubator containing 8% CO2 at 37° C. Cells (2.5·10^4 /1.1 ml per well) were seeded on 24-well multidishes and grown in DMEM. After 24 hours of growth, the medium was replaced with fresh medium and a test compound (0.1-5 μM) was added from freshly made stock solutions, which were prepared in DMSO and diluted with DMEM. The final concentration of DMSO in the culture medium was 0.2%. Controls were performed using DMSO or medium alone. Forty-eight hours after addition of a test compound to the culture, the medium was removed and each well was rinsed with phosphate-buffered saline (PBS, 100 μL). The cells were then incubated with sterile 0.5% trypsin, 0.2% EDTA in PBS for 20 minutes at 37° C. The detached cells from each well were suspended in DMEM and dispersed as single cells by gentle pipetting through an Eppendorf pipette. Cell growth was determined directly by counting the keratinocytes on a Neubauer counting chamber using phase contrast microscopy. Inhibition of cell proliferation was calculated by a comparison of the mean value of the test compound (N=3) with the control (N=6-8) activity: (1-test compound/control)×100.

[1] = Inhibition of AAPH-induced lipid peroxidation in bovine brain phospholipid liposomes; assay type: biochemical; details: AAPH-induced; bovine brain phospholipid liposomes; N = 3 or more; read-out: LPO IC50 (inhibition of lipid peroxidation)
Experimental: Phospholipids were prepared essentially as described by Gutteridge, J. M. C., (Anal. Biochem., 82: 76-82 (1977)). Bovine brain tissue was cooled on ice, freed from blood vessels and washed repeatedly with 0.15 M NaCl, pH 7.4. The tissue was cut into pieces and then macerated with an ultra-turrax, passed through a fine-meshed sieve, and extracted four times with four times the volume of acetone. The extraction mixture was filtered by suction to remove the acetone, the residue dried under vacuum, and then repeatedly extracted with petroleum ether (40-60) using twice the volume of the original brain homogenate. The combined extracts were filtered, dried at 45° C., and dissolved in ether (one fifth the original brain volume). The mixture was treated with five times the volume of acetone, and the resulting precipitate was collected by suction-filtration, dried and stored under N2 at -20° C. in the dark. Bovine brain phospholipids were weighed into glass tubes and shaken in a vortex mixer (Heidolph) in the presence of five small glass beads (.phi. 4 mm) for 1 minute. The phospholipids were suspended in 0.15 M NaCl, pH 7.4, to a final concentration of 5 mg/ml. The mixture was purged with N2 for 1 minute and vigorously dispersed in a vortex mixer for 5 minutes. The liposomes were allowed to swell for 1 hour at 4° C., and vesicles with a mean size of 1-10 μm were obtained according to the method of Bangham, et al., (J. Mol. Biol., 13:238-252 (1965). The liposomes were stimulated with the azo initiator 2 2'-azobis (2-amidinopropane) hydrochloride according to the method of Gutteridge, J. M. C., (Anal. Biochem. 82:76-82 (1977)).
The following reagents were added to the glass tubes containing stimulating bovine brain phospholipid piposomes in the order and at the final concentrations listed: 0.3 ml HK2 PO4 --KOH buffer, pH 7.4 (30 mM), 0.29 ml double distilled H2 O, 0.2 ml liposomes (1 mg/ml), 0.2 ml FeCl3.H2 O (0.1 mM), 0.01 ml 2-substituted anthracenone compound of the invention (variable concentrations).
Appropriate blanks and controls using the vehicle (acetone) were conducted. The final reaction volumes were standardized to 1.0 ml. The reaction mixtures were incubated for 1 hour at 37° C. in a shaking water bath. […] of 20% (w/v) BHT, 0.5 ml 25% (w/v) HCl and 0.5 ml of 1% 2-thiobarbituric acid were added and the samples were heated at 100° C. for 15 minutes and then cooled in an ice bath (5 minutes). 2 ml of 1-butanol were added and the mixtures were vigorously shaken in a vortex mixer (Heidolph) for 15 seconds. The organic layer was separated by centrifugation at 3000 rpm (15 minutes) and absorbance at 532 nm was measured against butanol.

[2] = Deoxyribose degradation as a measure of hydroxyl radical formation; assay type: biochemical; details: 75 μM test compound; controls < 0.1
Experimental: ^c Deoxyribose degradation as a measure of hydroxyl radical formation
Indicated values are μmoles of malondialdehyde per mmole of deoxyribos
released by 75 μM test compound (controls < 0.1).
Degradation of deoxyribose provides a measurement of the amount of hydroxyl radical formation caused by the test compounds. The assay used to determine degradation of 2-deoxy-D-ribose followed generally the procedures of Gutteridge, J. M. C., Biochem. J., 224: 761-767 (1984) and Laughton, et al., Biochem. Pharmacol., 38: 2859-2865 (1989). The following reagents were added to glass tubes in the order and at the final concentrations listed. 0.3 mL kH2 PO4 --KOH buffer, pH 7.4 (30 mM), 0.2 ml double distilled H2 O, 0.2 ml 2-deoxy-D-ribose (2 mM), 0.2 ml FeCl3.6H2 O (0.1 mM), 0.1 ml 2-substituted anthracenone ([…]). Stock solutions of each of the 2-substituted anthracenone compounds were made up fresh before use. Appropriate blanks and controls using an acetronitrile vehicle were performed.
Final reaction volumes were standardized to 1.0 ml. The reaction mixtures were incubated for 2 hours at 37° C. in a shaking water bath at 50 rpm. 1 ml of 2.8% (w/v) trichloracetic acid and 1 ml of 1% (w/v in 0.05 N NaOH) 2-thiobarbituric acid (TBA) were added, and the samples were heated at 100° C. for 15 minutes and then cooled in an ice bath (5 minutes). 2 ml of each reaction mixture was treated with 0.05 ml of 36% (w/v) HCl and 2 of 1-butanol, followed by vigorous shaking with a vortex mixer (Heidolph) for 15 seconds. The organic layer was separated by centrifugation at 3000 rpm (15 minutes) and absorbance at 532 nm was measured against butanol. Calibration was performed using a malondialdehyde (MDA) standard prepared by hydrolysis of 1,1,3,3-tetraethoxypropane (Gutteridge, J. M. C., Anal. Biochem., 69: 518-526 (1975). TBA reactive material was expressed in terms of μmol MDA per μmol deoxyribose. The results of the assay are provided in Table I.

| SMILES | IC50 (HaCaT cells) | IC50 [1] | DD (deoxyribose degradation, malondialdehyde released) [2] |
| --- | --- | --- | --- |
| CN(O)C(=O)Cc1ccc2c(c1O)C(=O)c1c(O)cccc1C2 [ID, N-Hydroxy-N-methyl-(9,10-dihydro-1,8-dihydroxy-9-oxo-2-anthracene)acetamide] | 0.8 µM | 29 µM | 1.67 ± 0.08 μmol of MDA/mmol |
| CN(O)C(=O)CCc1ccc2c(c1O)C(=O)c1c(O)cccc1C2 [IID, N-Hydroxy-N-methyl-3-(9,10-dihydro-1,8-dihydroxy-9-oxo-2-anthracene)propionamide] | – | 11 µM | 0.92 ± 0.03 μmol of MDA/mmol |
| CN(O)C(=O)CCCc1ccc2c(c1O)C(=O)c1c(O)cccc1C2 [IIID, N-Hydroxy-N-methyl-4-(9,10-dihydro-1,8-dihydroxy-9-oxo-2-anthracene)butanamide] | – | 37 µM | 1.50 ± 0.02 μmol of MDA/mmol |
| O=C(O)CCCCc1ccc2c(c1O)C(=O)c1c(O)cccc1C2 [IVA, 5-(9,10-Dihydro-1,8-dihydroxy-9-oxo-2-anthracene) pentanoic acid] | > 5 µM | 105 µM | 2.62 ± 0.41 μmol of MDA/mmol |
| O=C(CCCCc1ccc2c(c1O)C(=O)c1c(O)cccc1C2)NO [IVC, N-Hydroxy-5-(9,10-dihydro-1,8-dihydroxy-9-oxo-2-anthracene)pentanamide] | 2 µM | 62 µM | 1.38 ± 0.09 μmol of MDA/mmol |
| CN(O)C(=O)CCCCc1ccc2c(c1O)C(=O)c1c(O)cccc1C2 [IVD, N-Hydroxy-N-methyl-5-(9,10-dihydro-1,8-dihydroxy-9-oxo-2-anthracene)pentanamide] | – | 16 µM | 1.36 ± 0.05 μmol of MDA/mmol |
| CN(O)C(=O)CCCCCc1ccc2c(c1O)C(=O)c1c(O)cccc1C2 [VD, N-Hydroxy-N-methyl-6-(9,10-dihydro-1,8-dihydroxy-9-oxo-2-anthracene)hexanamide] | 0.9 µM | 15 µM | – |
| CC(C)C(C(=O)O)c1ccc2c(c1O)C(=O)c1c(O)cccc1C2 (centres unmarked) [VIIIA, 2-(9,10-Dihydro-1,8-dihydroxy-9-oxo-2-anthracene)-3-methylbutanoic acid] | > 5 µM | 155 µM | 3.58 ± 0.30 μmol of MDA/mmol |
| CC(C)C(C(=O)N(C)O)c1ccc2c(c1O)C(=O)c1c(O)cccc1C2 (centres unmarked) [VIIID, N-Hydroxy-N-methyl-2-(9,10-dihydro-1,8-dihydroxy-9-oxo-2-anthracene)-3-methylbutanamide] | 1.5 µM | 12.5 µM | 0.86 ± 0.01 μmol of MDA/mmol |
| O=C1c2c(O)cccc2Cc2ccc(C(CCc3ccccc3)C(=O)O)c(O)c21 (centres unmarked) [XA, 2-(9,10-Dihydro-1,8-dihydroxy-9-oxo-2-anthracene)-4-phenylbutanoic acid] | > 5 µM | 62 µM | 2.47 ± 0.16 μmol of MDA/mmol |
